Measurements: publication PMC11061832, “Antiviral Rotenoids and Isoflavones Isolated from Millettiaoblata ssp. teitensis” (Journal of Natural Products, 2024)
“Also recorded” adds a separate entry of the source.

Assays:
in vitro = conditions: human
Method: (§1) The extracts and the isolated compounds were tested for antiviral activity against RSV by the viral plaque reduction assay in cultures of HEp-2 cells (Table 3, Supporting Information). A tetrazolium-based cytotoxicity assay on HEp-2 cells was also performed to exclude that the anti-RSV activity was a result of general cytotoxicity. The cytotoxicity assay was complemented by microscopy observation of the compound- and extract-treated cells to detect possible cytostatic activity, such as poor cell growth and/or altered cell shape that may affect antiviral activity. […] At this stage, it is difficult to assess whether the cytostatic activity of these specific compounds contributed to the protection of cells against virus infection, and accordingly the specificity of anti-RSV action of 9 and 13 requires further investigation. An attempt was made to address this issue by testing cytotoxic activities of the most promising compounds in human embryonic lung fibroblasts (HELFs), i.e., primary cells derived from lung interstitium.
(§2) HEp-2 cells were cultivated in Dulbecco’s modified Eagle’s medium (DMEM) supplemented with 8% fetal calf serum and 292 μg/mL of L-glutamine. Human adenocarcinoma cells of uterine cervix (HeLa) were grown in Eagle’s minimum essential medium supplemented with 5% fetal calf serum and antibiotics. HELFs were grown in Eagle’s minimum essential medium supplemented with 5% fetal calf serum, L-glutamine, and antibiotics. The A2 strain of RSV (ATCC VR-1540) was used. The RSV stock was prepared and stored as described previously by Lundin et al.[50] In some experiments, strain HGP of HRV-2 (ATCC, VR-482) was used.
(§3) The tetrazolium-based cytotoxicity assay using a CellTiter 96 Aqueous One solution reagent (Promega) was performed for the test extracts and isolated compounds in HEp-2, HELFs, and HeLa cells as described previously.[50]
(§4) Figure S130. Cell viability in presence of the crude extracts of leaves and root heart of Milletia oblata ssp teitensis. The HEp-2 cells were incubated for 3 days at 37 °C with specific concentration of test extract. After addition of the tetrazolium (MTS)-based reagent the absorbance was recorded at 490 nm. The results are expressed as a percentage of absorbance developed in extract treated cells relative to DMSO treated controls. […]

RSV = RSV plaque reduction assay in HEp-2 cells; conditions: for SI (CC50/IC50): CC50 HEp-2 / anti-RSV IC50; for IC50: human respiratory syncytial virus, HEp-2, 72 h, read-out: anti-RSV activity IC50
Method: as §1
Human adenocarcinoma cells of uterine cervix (HeLa) were grown in Eagle’s minimum essential medium supplemented with 5% fetal calf serum and antibiotics. HELFs were grown in Eagle’s minimum essential medium supplemented with 5% fetal calf serum, L-glutamine, and antibiotics. […] The RSV stock was prepared and stored as described previously by Lundin et al.[50]
The RSV plaque reduction assay was performed as described previously[27],[51] with some modifications. […] Following 15 min of incubation at 37 °C in a humidified atmosphere comprising 5% CO2 (incubator), the cells were inoculated with 50–100 plaque-forming units of RSV A2. After incubation of the virus–compound mixture with cells for 2.5 h in the CO2 incubator, the inoculum was removed and 750 μL of 1% methylcellulose solution in DMEM-M comprising the same concentration of test compound/extract was added and left for a further 3 days in the CO2 incubator. The cells were stained with a 1% solution of crystal violet, and the viral plaques were counted under a microscope.

[1] = tested on: human embryonic lung fibroblasts (HELFs); test: Tetrazolium-based cytotoxicity assay in human embryonic lung fibroblasts; conditions: primary lung fibroblasts
Method: as §1, §2, §3

[2] = as above; conditions: human
Method: as §1, §2, §3

[3] = Tetrazolium-based cytotoxicity assay in HeLa cells; format: cell-based; conditions: human, 34 °C
Method: Figure S133. Anti-HRV-2 (IC50) of 3 of Milletia oblata ssp teitensis in HeLa cells. In the cell protection against HRV assay, the cells were incubated in the presence of specific concentrations of test compound for 3 h, then inoculated with HRV and incubated for further 3 days at 34°C. Two separate experiments were performed, and the cell protection against HRV-2 was calculated according to formula described in the Method section. In the cell viability assay, the cells were incubated with test compound for 3 days at 34°C. For further explanations see legend to Figure S130.
Table S1. Anti-RSV activity, cytotoxicity for HEp-2 cells, and selectivity indices (SI) of Milletia oblata extracts. For explanations see legend to Table 3.
Compound/extract Anti-RSV activity Cytotoxicity SI […]
Root wood extract 3.4 66 PCS (8 µg/mL) 19.4
(1 picture or pasted object on this page, not shown here)

HRV-2 = test: Anti-HRV-2 tetrazolium-based cell protection assay in HeLa cells; parameters: species or system human rhinovirus 2 (strain HGP)
HEp-2 cells [4] = test: Microscopic recording of cytostatic activity in compound-treated HEp-2 cells; conditions: microscopy, PCP poor cell proliferation, ACS altered cell shape, PCS poor cell staining, concentration(s) at which seen in brackets
Method: as §1

HEp-2 cells [5] = test: Tetrazolium-based cytotoxicity assay in HEp-2 cells; conditions: read-out: cytotoxicity CC50; HEp-2 cells, tetrazolium-based assay
Method: as §1, §2, §3, §4

[6] = cytotoxicity CC50, HEp-2 cells, tetrazolium-based assay
[7] = HEp-2 cells, cytotoxicity CC50, HEp-2 cells, tetrazolium-based assay
[8] = human embryonic lung fibroblasts (HELFs), primary cells

| Compound | CC50 (in vitro; [6]) [µM] | SI (CC50/IC50) (RSV) | IC50 (RSV) [µM] | CC50 at 3 days (in vitro; [7]) [µM] | cytotoxicity: cytostatic activity (HEp-2 cells [4]) | other results |
| --- | --- | --- | --- | --- | --- | --- |
| COc1ccc2c(c1)O[C@@H]1COc3c(cc(OC)c4c3OCO4)[C@@H]1C2=O [Compound 1, (6aS,12aS)-2,9-dimethoxy-3,4-methylenedioxyrotenoid] | > 100 | 1.0 | > 100 | – | – | – |
| COc1cc2c(cc1OC)C(=O)[C@@]1(O)c3cc4c(cc3OC[C@H]1O2)OCO4 [Compound 2, (6aR,12aR)-9,10-dimethoxy-2,3-methylenedioxy-12a-hydroxyrotenoid] | > 100 | 1.0 | > 100 | – | – | – |
| COc1ccc2c(=O)c3c(oc2c1)COc1cc2c(cc1-3)OCO2 [Compound 3, 9-methoxy-2,3-methylenedioxy-6a-2a-dehydrorotenoid] | – | 4.1 | 22 | 90 | – | cytotoxicity (in words) [1]: low cytotoxicity; CC50 [2, 8]: > 100 µM; CC50 at 3 days [3]: 48 µM; SI (HRV-2; CC50 HeLa / anti-HRV-2 IC50): 11.4; IC50 (HRV-2; Rhinovirus A, HRV2, 72 h, protection of HeLa cells against HRV-2 infection, 3 days, 34 °C): 4.2 µM |
| COc1c(O[C@@H]2O[C@H](CO[C@H]3O[C@H](C)[C@@H](O)[C@H](O)[C@@H]3O)[C@@H](O[C@@H]3O[C@H](CO[C@H]4O[C@H](C)[C@@H](O)[C@H](O)[C@@H]4O)[C@@H](O)[C@H](O)[C@H]3O)[C@H](O)[C@H]2O)cc2c(=O)c(-c3ccc4c(c3)OCO4)coc2c1OC [Compound 4, isoplatycarpanetin-6-O-β-glucosyl-(7″→1‴′)-α-rhamnosyl-(4″→1‴)-β-glucosyl-(7‴→1‴′)-α-rhamnoside] | – | 1.0 | > 100 | > 100 | – | – |
| COc1ccc2c(c1)O[C@@H]1COc3cc4c(cc3[C@@H]1C2=O)OCO4 [Compound 5, oblarotenoid C] | > 100 | >1.9 | 53 | – | – | – |
| COc1ccc2c(c1)O[C@@H]1COc3cc4c(cc3[C@]1(O)C2=O)OCO4 [Compound 6, oblarotenoid A] | > 26.5 | 35.7 | 1.4 | – | PCS (20.0 μM) | CC50 (HEp-2 cells [5]): 50 µM; CC50 [2]: 1.3 µM |
| COc1ccc2c(c1)O[C@@H]1COc3c(cc(OC)c4c3OCO4)[C@]1(O)C2=O [Compound 7, oblarotenoid D] | 6.7 | 3.8 | 1.8 | – | – | – |
| COc1ccc2c(c1)O[C@@H]1COc3cc(OC)c(OC)cc3[C@]1(O)C2=O [Compound 8, 12a-hydroxymunduserone] | > 26.5 | 28.0 | 1.5 | – | PCS (20.0 μM) | CC50 (HEp-2 cells [5]): 42 µM; CC50 [2]: 4.8 µM |
| COc1cc2c(cc1OC)[C@]1(O)C(=O)c3ccc4c(c3O[C@@H]1CO2)C=CC(C)(C)O4 [Compound 9, tephrosin] | – | 15.6 | 0.8 | – | cytostatic activity at concentrations close to their IC50 values; also recorded: PCS (0.8 and 4.0 μM) | CC50 at 3 days (in vitro): 12.5 µM |
| COc1cc2c(cc1OC)[C@@H]1C(=O)c3ccc4c(c3O[C@@H]1CO2)C=CC(C)(C)O4 [Compound 10, deguelin] | > 26.5 | – | 0.4 | – | PCS (4.0 μM) | CC50 (HEp-2 cells [5]): 26.5 µM; CC50 [2]: 0.3 µM |
| COc1cc2c(cc1-c1coc3c4c(c(OC)cc3c1=O)OC(C)(C)C=C4)OCO2 [Compound 11, ichthynone] | – | 11.4 | 8 | – | PCS (20.0 μM) | cytotoxicity (in words) [1]: low cytotoxicity; CC50 [2, 8]: > 100 µM |
| COc1ccc2c(=O)c(-c3cc(OC)c4c(c3OC)OCO4)coc2c1 [Compound 12, 7,2′,5′-trimethoxy-3′,4′-methylenedioxyisoflavone] | – | 1.0 | > 100 | > 100 | – | – |
| CC(C)=CCOc1ccc(-c2coc3c4c(ccc3c2=O)OC(C)(C)C=C4)cc1 [Compound 13, isoerythrin-A-4′-prenyl ether] | – | >47.6 | 2.1 | > 100 | cytostatic activity at concentrations close to their IC50 values; also recorded: PCS (4.0, 20.0, and 100.0 μM) | CC50 [2, 8]: 9 µM |
| CC(C)=CCOc1ccc(-c2coc3c4c(cc(O)c3c2=O)OC(C)(C)C=C4)cc1 [Compound 14, 4′-prenyloxyderrone] | – | >10 | 10 | – | PCS (100.0 μM) | cytotoxicity (in words) [1]: low cytotoxicity; CC50 [2, 8]: > 100 µM |
| COc1ccc2c(=O)c(-c3cc4c(cc3OC)OCO4)coc2c1 [Compound 15, aglycuneatin methyl ether] | – | 6.5 | 10 | 65 | PCS (20.0 μM) | CC50 [2, 8]: 47.1 µM |
| CC1(C)C=Cc2c(ccc3c(=O)c(-c4ccc5c(c4)OCO5)coc23)O1 [Compound 16, calopogonium isoflavone B] | – | 1.0 | > 100 | > 100 | – | – |
| COc1cc2c(cc1-c1coc3cc(O)ccc3c1=O)OCO2 [Compound 17, maximaisoflavone G] | – | 1.0 | > 100 | > 100 | – | – |
| CC1(C)C=Cc2c(ccc(C(=O)/C=C/c3ccc(O)cc3)c2O)O1 [Compound 19, isobavachromene] | – | <2.5 | > 0.8 | 2 | – | – |
| NC(=O)c1ncn([C@@H]2O[C@H](CO)[C@@H](O)[C@H]2O)n1 [ribavirin, reference compound] | – | – | 10.6 | – | – | CC50 at 3 days (in vitro; cytotoxicity CC50): > 100 µM |
